Test results as given in patent publication US20140357655A1, “SPIROINDOLINE DERIVATIVES AS GONADOTROPIN- RELEASING HORMONE RECEPTOR ANTAGONISTS” (Bayer Intellectual Property GmbH, priority 2012, published 2014).

Molecular target: T1, human GnRH receptor (Homo sapiens, UniProt P30968)
T1 sequence (P30968 1-328): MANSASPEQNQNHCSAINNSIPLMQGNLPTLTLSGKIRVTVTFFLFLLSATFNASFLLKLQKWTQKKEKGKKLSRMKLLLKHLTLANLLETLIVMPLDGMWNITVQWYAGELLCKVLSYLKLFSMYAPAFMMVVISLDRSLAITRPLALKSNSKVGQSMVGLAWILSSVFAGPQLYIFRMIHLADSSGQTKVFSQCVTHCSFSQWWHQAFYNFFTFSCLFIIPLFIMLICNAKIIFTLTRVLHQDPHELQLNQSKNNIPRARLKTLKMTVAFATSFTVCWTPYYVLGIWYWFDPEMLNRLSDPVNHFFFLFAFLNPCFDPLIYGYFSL
Test: IP-One HTRF assay with buserelin (at EC80) stimulation
Type: cell-based
Conditions: CHO cells stably expressing human GnRH receptor, read-out: Potency in IP-One HTRF assay, given as IC50
Procedure, shortened: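 Ten-point duplicate titrations (20 μM to 1 nM) were fitted by 4-parameter model to normalized 665/620 nm HTRF ratios, 0% = no compound, 100% = no agonist. Assay measured IP1 accumulation in human GnRH-R CHO cells stimulated 1 h at 37° C with EC80 buserelin, then lysed 1 h at 22° C.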

Compound | IC50 [µM]
O=C(NCc1ncccc1F)c1ccc2c(c1)C1(CCS(=O)(=O)CC1)C(C1CC1)N2S(=O)(=O)c1ccc(F)cc1 (centres unmarked) [Example 52, 2-cyclopropyl-1-[(4-fluorophenyl)sulfonyl]-N-[(3-fluoropyridin-2-yl)methyl]-1,2,2′,3′,5′,6′-hexahydrospiro[indole-3,4′-thiopyran]-5-carboxamide 1′,1′-dioxide] | 0.752
COc1cccc(S(=O)(=O)N2c3ccc(C(=O)NCc4ncccc4F)cc3C3(CCS(=O)(=O)CC3)C2C2CC2)c1 (centres unmarked) [Example 53, 2-cyclopropyl-N-[(3-fluoropyridin-2-yl)methyl]-1-[(3-methoxyphenyl)sulfonyl]-1,2,2′,3′,5′,6′-hexahydrospiro[indole-3,4′-thiopyran]-5-carboxamide 1′,1′-dioxide] | 0.617
C=CCC1N(S(=O)(=O)c2cccc(C(=O)OC)c2)c2ccc(C(=O)NCc3ccccc3Cl)cc2C12CCS(=O)(=O)CC2 (centres unmarked) [Example 54, methyl 3-({5-[N-(2-chlorobenzyl)carbamoyl]-1′,1′-dioxido-2-(prop-2-en-1-yl)-1,2,2′,3′,5′,6′-hexahydrospiro[indole-3,4′-thiopyran]-1-yl}sulfonyl)benzoate] | 0.091
C=CC1N(S(=O)(=O)c2cccc(C(=O)OC)c2)c2ccc(C(=O)NCc3ccccc3Cl)cc2C12CCS(=O)(=O)CC2 (centres unmarked) [Example 55, methyl 3-({5-[N-(2-chlorobenzyl)carbamoyl]-1′,1′-dioxido-2-vinyl-1,2,2′,3′,5′,6′-hexahydrospiro[indole-3,4′-thiopyran]-1-yl}sulfonyl)benzoate] | 0.622
C=CCC1N(S(=O)(=O)c2cccc(C(=O)O)c2)c2ccc(C(=O)NCc3ccccc3Cl)cc2C12CCS(=O)(=O)CC2 (centres unmarked) [Example 56, 3-({5-[(2-chlorobenzyl)carbamoyl]-1′,1′-dioxido-2-(prop-2-en-1-yl)-2′,3′,5′,6′-tetrahydrospiro[indole-3,4′-thiopyran]-1(2H)-yl}sulfonyl)benzoic acid] | 0.136
C=CCC1N(S(=O)(=O)c2ccc(F)cc2)c2ccc(C(=O)NCc3ncccc3Cl)cc2C12CCS(=O)(=O)CC2 (centres unmarked) [Example 57, N-[(3-chloropyridin-2-yl)methyl]-1-[(4-fluorophenyl)sulfonyl]-2-(prop-2-en-1-yl)-1,2,2′,3′,5′,6′-hexahydrospiro[indole-3,4′-thiopyran]-5-carboxamide 1′,1′-dioxide] | 0.071
C=CCC1N(S(=O)(=O)c2ccc(F)cc2)c2ccc(C(=O)Nc3cccc(C(=O)OC)c3)cc2C12CCS(=O)(=O)CC2 (centres unmarked) [Example 58, methyl 3-[({1-[(4-fluorophenyl)sulfonyl]-1′,1′-dioxido-2-(prop-2-en-1-yl)-1,2,2′,3′,5′,6′-hexahydrospiro[indole-3,4′-thiopyran]-5-yl}carbonyl)amino]benzoate] | 0.041
C=CCC1N(S(=O)(=O)c2ccc(F)cc2)c2ccc(C(=O)Nc3cccc(C(=O)O)c3)cc2C12CCS(=O)(=O)CC2 (centres unmarked) [Example 59, 3-[({1-[(4-fluorophenyl)sulfonyl]-1′,1′-dioxido-2-(prop-2-en-1-yl)-1,2,2′,3′,5′,6′-hexahydrospiro[indole-3,4′-thiopyran]-5-yl}carbonyl)amino]benzoic acid] | 0.08
COC(=O)c1cccc(S(=O)(=O)N2c3ccc(C(=O)NCc4ccccc4Cl)cc3C3(CCS(=O)(=O)CC3)C2C2CC2)c1 (centres unmarked) [Example 60, methyl 3-({5-[(2-chlorobenzyl)carbamoyl]-2-cyclopropyl-1′,1′-dioxido-2′,3′,5′,6′-tetrahydrospiro[indole-3,4′-thiopyran]-1(2H)-yl}sulfonyl)benzoate] | 0.192
COc1cccc(S(=O)(=O)N2c3ccc(C(=O)Nc4cccc(S(=O)(=O)N=C(N(C)C)N(C)C)c4)cc3C3(CCS(=O)(=O)CC3)C2C2CC2)c1 (centres unmarked) [Example 62, N-(3-{[bis(dimethylamino)methylidene]sulfamoyl}phenyl)-2-cyclopropyl-1-[(3-methoxyphenyl)sulfonyl]-1,2,2′,3′,5′,6′-hexahydrospiro[indole-3,4′-thiopyran]-5-carboxamide 1′,1′-dioxide] | 0.0098
O=C(Nc1ccon1)c1ccc2c(c1)C1(CCS(=O)(=O)CC1)C(C1CC1)N2S(=O)(=O)c1ccc(F)cc1 (centres unmarked) [Example 63, 2-cyclopropyl-1-[(4-fluorophenyl)sulfonyl]-N-(1,2-oxazol-3-yl)-1,2,2′,3′,5′,6′-hexahydrospiro[indole-3,4′-thiopyran]-5-carboxamide 1′,1′-dioxide] | 0.325
CN(C)C(=NS(=O)(=O)c1cccc(NC(=O)c2ccc3c(c2)C2(CCS(=O)(=O)CC2)C(C2CC2)N3S(=O)(=O)c2ccc(F)cc2)c1)N(C)C (centres unmarked) [Example 64, N-(3-{[bis(dimethylamino)methylidene]sulfamoyl}phenyl)-2-cyclopropyl-1-[(4-fluorophenyl)sulfonyl]-1,2,2′,3′,5′,6′-hexahydrospiro[indole-3,4′-thiopyran]-5-carboxamide 1′,1′-dioxide] | 0.0093
O=C(NCc1ccc(C(F)(F)F)cn1)c1ccc2c(c1)C1(CCS(=O)(=O)CC1)C(C1CC1)N2S(=O)(=O)c1ccc(F)cc1 (centres unmarked) [Example 65, 2-cyclopropyl-1-[(4-fluorophenyl)sulfonyl]-N-{[5-(trifluoromethyl)pyridin-2-yl]methyl}-1,2,2′,3′,5′,6′-hexahydrospiro[indole-3,4′-thiopyran]-5-carboxamide 1′,1′-dioxide] | 0.479
Cc1cc(NS(=O)(=O)c2cccc(NC(=O)c3ccc4c(c3)C3(CCS(=O)(=O)CC3)C(C3CC3)N4S(=O)(=O)c3ccc(F)cc3)c2)no1 (centres unmarked) [Example 66, 2-cyclopropyl-1-[(4-fluorophenyl)sulfonyl]-N-{3-[(5-methyl-1,2-oxazol-3-yl)sulfamoyl]phenyl}-1,2,2′,3′,5′,6′-hexahydrospiro[indole-3,4′-thiopyran]-5-carboxamide 1′,1′-dioxide] | 0.177
O=C(NCc1ccccc1C(F)F)c1ccc2c(c1)C1(CCS(=O)(=O)CC1)C(C1CC1)N2S(=O)(=O)c1ccc(F)cc1 (centres unmarked) [Example 68, 2-cyclopropyl-N-[2-(difluoromethyl)benzyl]-1-[(4-fluorophenyl)sulfonyl]-1,2,2′,3′,5′,6′-hexahydrospiro[indole-3,4′-thiopyran]-5-carboxamide 1′,1′-dioxide] | 0.0045
O=C(NCc1ccccc1O)c1ccc2c(c1)C1(CCS(=O)(=O)CC1)C(C1CC1)N2S(=O)(=O)c1ccc(F)cc1 (centres unmarked) [Example 69, 2-cyclopropyl-1-[(4-fluorophenyl)sulfonyl]-N-(2-hydroxybenzyl)-1,2,2′,3′,5′,6′-hexahydrospiro[indole-3,4′-thiopyran]-5-carboxamide 1′,1′-dioxide] | 0.32
N#Cc1ccc(S(=O)(=O)N2c3ccc(C(=O)NCc4ncccc4Cl)cc3C3(CCS(=O)(=O)CC3)C2C2CC2)cc1 (centres unmarked) [Example 70, N-[(3-chloropyridin-2-yl)methyl]-1-[(4-cyanophenyl)sulfonyl]-2-cyclopropyl-1,2,2′,3′,5′,6′-hexahydrospiro[indole-3,4′-thiopyran]-5-carboxamide 1′,1′-dioxide] | 0.063
N#Cc1ccc(S(=O)(=O)N2c3ccc(C(=O)Nc4cncc(Cl)c4)cc3C3(CCS(=O)(=O)CC3)C2C2CC2)cc1 (centres unmarked) [Example 71, N-(5-chloropyridin-3-yl)-1-[(4-cyanophenyl)sulfonyl]-2-cyclopropyl-1,2,2′,3′,5′,6′-hexahydrospiro[indole-3,4′-thiopyran]-5-carboxamide 1′,1′-dioxide] | 0.052
N#Cc1ccc(S(=O)(=O)N2c3ccc(C(=O)NCc4ccccc4C(F)(F)F)cc3C3(CCS(=O)(=O)CC3)C2C2CC2)cc1 (centres unmarked) [Example 72, 1-[(4-cyanophenyl)sulfonyl]-2-cyclopropyl-N-[2-(trifluoromethyl)benzyl]-1,2,2′,3′,5′,6′-hexahydrospiro[indole-3,4′-thiopyran]-5-carboxamide 1′,1′-dioxide] | 0.013
N#Cc1ccc(S(=O)(=O)N2c3ccc(C(=O)Nc4ncco4)cc3C3(CCS(=O)(=O)CC3)C2C2CC2)cc1 (centres unmarked) [Example 73, 1-[(4-cyanophenyl)sulfonyl]-2-cyclopropyl-N-(1,3-oxazol-2-yl)-1,2,2′,3′,5′,6′-hexahydrospiro[indole-3,4′-thiopyran]-5-carboxamide 1′,1′-dioxide] | 0.13
N#Cc1ccc(S(=O)(=O)N2c3ccc(C(=O)Nc4ccccc4Cl)cc3C3(CCS(=O)(=O)CC3)C2C2CC2)cc1 (centres unmarked) [Example 74, N-(2-chlorophenyl)-1-[(4-cyanophenyl)sulfonyl]-2-cyclopropyl-1,2,2′,3′,5′,6′-hexahydrospiro[indole-3,4′-thiopyran]-5-carboxamide 1′,1′-dioxide] | 0.066
N#Cc1cccc(S(=O)(=O)N2c3ccc(C(=O)NCc4ccccc4Cl)cc3C3(CCS(=O)(=O)CC3)C2C2CC2)c1 (centres unmarked) [Example 76, N-(2-chlorobenzyl)-1-[(3-cyanophenyl)sulfonyl]-2-cyclopropyl-1,2,2′,3′,5′,6′-hexahydrospiro[indole-3,4′-thiopyran]-5-carboxamide 1′,1′-dioxide] | 0.044
N#Cc1cccc(S(=O)(=O)N2c3ccc(C(=O)Nc4cncc(Cl)c4)cc3C3(CCS(=O)(=O)CC3)C2C2CC2)c1 (centres unmarked) [Example 77, N-(5-chloropyridin-3-yl)-1-[(3-cyanophenyl)sulfonyl]-2-cyclopropyl-1,2,2′,3′,5′,6′-hexahydrospiro[indole-3,4′-thiopyran]-5-carboxamide 1′,1′-dioxide] | 0.7
